Among the test systems are RPMI-8226; HCT-116; SF-295; Hs-578T; NCI/ADR-RES; SR; CCRF-CEM; NCI-H522; NCI-H226; OVCAR-8; SNB-75; SK-MEL-5; SK-OV-3; A549; SF-268; 786-0; TK-10; NCI-H460; UACC-257.
Test in all cases: growth of human tumour cells (NCI), 48 h

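Five compound concentrations were applied to cells in 96-well plates for 48 hours; endpoints were derived by simple linear interpolation of the resulting dose-response curve. At the GI50, growth is halved.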 Calls of active or inactive are those of the source. Rule as the data show it: active = GI50 up to about 1.1 µM and inactive = higher. Where only a bound is given, the exact number is not on record here.

For `C=C1C(=O)O[C@H]2[C@@H](O)[C@H](C)CCC[C@]3(C)O[C@H]3CC[C@@]3(C)O[C@@H]3C[C@@H]12`, the GI50 was 2.15 µM (inactive) with RPMI-8226; 1.75 µM (inactive) in the experiment with HCT-116; 8.55 µM (inactive) in the experiment with SF-295; 7.59 µM (inactive) in the experiment on Hs-578T; 7.73 µM (inactive) in the experiment on NCI/ADR-RES; 1.43 µM (inactive) with SR. The GI50 in the experiment on CCRF-CEM was 1.58 µM (inactive); with NCI-H522 it was 1.12 µM (inactive); with NCI-H226, 7.43 µM (inactive); in the experiment on OVCAR-8, 6.25 µM (inactive); in the experiment with SNB-75, 6.9 µM (inactive); in the experiment with SK-MEL-5, 4.04 µM (inactive). In addition, the GI50 was 10.1 µM (inactive) with SK-OV-3, 9.33 µM (inactive) in the experiment with A549, 6.07 µM (inactive) with SF-268 and 5.15 µM (inactive) in the experiment on 786-0.

Take `COC(=O)C(NC(=O)C12CCC(C)(C(=O)O1)C2(C)C)c1cc(C(C)(C)C)c(O)c(C(C)(C)C)c1` (stereo not given): the GI50 was 14.7 µM (inactive) in the experiment with RPMI-8226; 57.7 µM (inactive) with TK-10; 64.3 µM (inactive) in the experiment with HCT-116; > 100 µM (inactive) in the experiment on SF-295; 94 µM (inactive) with Hs-578T; > 100 µM (inactive) in the experiment with NCI/ADR-RES. Besides, the GI50 in the experiment on SR was 68.2 µM (inactive); with CCRF-CEM, 39.9 µM (inactive); with NCI-H522, > 100 µM (inactive); with NCI-H226 it was > 100 µM (inactive); in the experiment on OVCAR-8, > 100 µM (inactive); in the experiment on SNB-75 it was > 100 µM (inactive). For the same molecule, the GI50 with SK-MEL-5 is 21.7 µM (inactive); in the experiment on SK-OV-3, > 100 µM (inactive); with A549 it was > 100 µM (inactive); in the experiment on SF-268, > 100 µM (inactive); with 786-0 it was > 100 µM (inactive).

On to `CC(C)(C)NC1C2CCC(C)(C1O)C2(C)C` (stereo not given), for which the GI50 in the experiment on RPMI-8226, in the experiment with TK-10, with HCT-116, with SF-295, in the experiment with NCI/ADR-RES and with SR was > 100 µM (inactive) each time. For the same molecule, the GI50 in the experiment on NCI-H460 was > 100 µM (inactive); in the experiment on UACC-257, > 100 µM (inactive); in the experiment on OVCAR-8 it was > 100 µM (inactive); in the experiment with SNB-75, 0.021 µM (active); in the experiment with SK-MEL-5, > 100 µM (inactive); in the experiment on SK-OV-3 it was > 100 µM (inactive). Besides, the GI50 in the experiment with A549, in the experiment with SF-268 and with 786-0 was > 100 µM (inactive) in each case.

As for `O=C(CSC(=S)N1CCOCC1)Nc1nc2c(s1)CCCC2`, the GI50 with RPMI-8226 is > 100 µM (inactive); with TK-10 it was > 100 µM (inactive); in the experiment on HCT-116 it was > 100 µM (inactive); in the experiment with SF-295 it was > 100 µM (inactive); with SR, 34.2 µM (inactive); in the experiment on NCI-H460 it was > 100 µM (inactive). In addition, the GI50 in the experiment on CCRF-CEM was 45.8 µM (inactive); with NCI-H522, 27.8 µM (inactive); in the experiment on UACC-257 it was 45.7 µM (inactive); in the experiment on NCI-H226 it was > 100 µM (inactive); in the experiment on OVCAR-8, > 100 µM (inactive); in the experiment with SNB-75, > 100 µM (inactive). Besides, the GI50 in the experiment with SK-MEL-5 was 35.5 µM (inactive); with SK-OV-3 it was > 100 µM (inactive); in the experiment on A549 it was > 100 µM (inactive); in the experiment on SF-268, > 100 µM (inactive); in the experiment with 786-0 it was 90.2 µM (inactive).

With `C=CCC1(C)CCCCC1(O)C[S+]([O-])c1ccccc1` (stereo not given), the GI50 was 33.7 µM (inactive) in the experiment with RPMI-8226; > 100 µM (inactive) in the experiment on TK-10; > 100 µM (inactive) with HCT-116; > 100 µM (inactive) in the experiment on SF-295; > 100 µM (inactive) in the experiment on SR; > 100 µM (inactive) with NCI-H460. Further, the GI50 is > 100 µM (inactive) with CCRF-CEM; > 100 µM (inactive) in the experiment with NCI-H522; > 100 µM (inactive) in the experiment on UACC-257; 20.9 µM (inactive) in the experiment on NCI-H226; > 100 µM (inactive) in the experiment with OVCAR-8; > 100 µM (inactive) with SNB-75. Also, the GI50 in the experiment on SK-MEL-5, in the experiment with SK-OV-3, in the experiment on A549, in the experiment on SF-268 and with 786-0 was > 100 µM (inactive) in each case.

With `N#Cc1cccc2c1Sc1ccccc1N2`, the GI50 in the experiment with RPMI-8226 was 27.7 µM (inactive); in the experiment on TK-10, 17.1 µM (inactive); in the experiment on HCT-116, 31.3 µM (inactive); in the experiment with SF-295, 23.9 µM (inactive); in the experiment on Hs-578T it was 0.397 µM (active); in the experiment on NCI/ADR-RES, 31.3 µM (inactive). Besides, the GI50 in the experiment with SR was 33.7 µM (inactive); with NCI-H460 it was 32.5 µM (inactive); in the experiment with CCRF-CEM, 7.48 µM (inactive); in the experiment with UACC-257 it was 35.1 µM (inactive); in the experiment on NCI-H226, 29.3 µM (inactive); with OVCAR-8, 29.5 µM (inactive). For the same molecule, the GI50 in the experiment with SNB-75 is 1.77 µM (inactive); in the experiment on SK-MEL-5, 0.553 µM (active); in the experiment with SK-OV-3 it was 38.9 µM (inactive); in the experiment with A549, 24.5 µM (inactive); in the experiment with SF-268 it was 30.8 µM (inactive); in the experiment with 786-0, 30.2 µM (inactive).

As to `C=C1C(=O)O[C@H]2[C@H]3O[C@@H](C[C@@H]12)[C@](C)(O)CC[C@@H]1O[C@@]1(C)CCC[C@H]3C`, the GI50 is 47.2 µM (inactive) in the experiment with RPMI-8226; 17.1 µM (inactive) in the experiment on TK-10; 14.2 µM (inactive) in the experiment on HCT-116; 68.9 µM (inactive) in the experiment with SF-295; 30.3 µM (inactive) with Hs-578T; 26.9 µM (inactive) with NCI/ADR-RES. Moreover, the GI50 in the experiment on SR is 16.5 µM (inactive); in the experiment with NCI-H460 it was 24.8 µM (inactive); with CCRF-CEM, 11.4 µM (inactive); in the experiment with NCI-H522, 18.1 µM (inactive); with UACC-257, 22.9 µM (inactive); in the experiment with NCI-H226 it was 23.3 µM (inactive). The GI50 with OVCAR-8 is 15.7 µM (inactive); in the experiment on SNB-75 it was 18.5 µM (inactive); in the experiment on SK-MEL-5 it was 14.7 µM (inactive); with SK-OV-3 it was 29.4 µM (inactive); in the experiment on A549, 25.5 µM (inactive); in the experiment with SF-268 it was 15.6 µM (inactive). In the experiment with 786-0, the GI50 was 11.7 µM (inactive).

Turning to `O=[N+]([O-])c1cccc(Nc2nc(Cl)nc(Cl)n2)c1`, the GI50 in the experiment with RPMI-8226, with HCT-116, with SF-295, in the experiment on SR, in the experiment with NCI-H460 and in the experiment with CCRF-CEM was > 100 µM (inactive) in each case. Further, the GI50 in the experiment with NCI-H522, in the experiment on UACC-257, in the experiment with NCI-H226, in the experiment with OVCAR-8, in the experiment with SNB-75 and in the experiment with SK-MEL-5 was > 100 µM (inactive) in each case. For the same molecule, the GI50 in the experiment on SK-OV-3, with A549, with SF-268 and with 786-0 was > 100 µM (inactive) in each case.

These data come from ChEMBL document CHEMBL1201862, “PubChem BioAssay data set” (2004).
